Legend:
[1] = test system: Truncated N-terminal huntington 150 Q-EGFP-Neuron 2a cells; experiment: Measurement of x-Fold (polyglutamine aggregation inhibitory activity); format: cell-based
Procedure: In the present invention, the polyglutamine aggregation inhibitory activity (x-Fold) can be measured, for example, by the method described in the Example.
The number of the aggregated cells, and the total number of cells were counted by Array Scan V T1 (manufactured by Cellomics, Pittuburg, USA), and the ratio of the aggregated cells to the total number of cells was determined (x-Fold). […]

transglutaminase (TGase) = experiment: Measurement of TG (TGase inhibitory activity, monodansyl cadaverine / N,N-dimethylcasein fluorescence, FDSS 3000); format: biochemical
Procedure, shortened: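 Compound (1 μL of 10 mM stock) added to 0.1 mL reaction: 100 mM HEPES-NaOH pH 7.5, 1 mM CaCl2, 20 μM monodansyl cadaverine, 0.05 mg/mL N,N-dimethylcasein, 5 μg/mL TGase. Rate of fluorescence change at 340 nm measured; DMSO control set to 100; TG50 is the concentration halving activity.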

[2] = ratio of aggregated cells to total number of cells, compound 20 μM, 20 hr, almost 1 without compound, smaller = stronger inhibition
[3] = TGase activity with compound (10 mM, 1 μL in 0.1 ml enzyme reaction solution), DMSO control taken as 100
[4] = polyglutamine aggregation inhibitory activity, Table 1
[5] = TGase inhibitory activity value, Table 1
[6] = polyglutamine aggregation, Truncated N-terminal huntington 150 Q-EGFP-Neuron 2a cells
[7] = TGase inhibitory activity measurement, unit not given

Row | Molecule | x-Fold [1, 2] | TGase activity remaining (% of DMSO control = 100) (transglutaminase (TGase); [3]) | x-Fold [1, 4] | TGase activity remaining (% of DMSO control = 100) (transglutaminase (TGase); [5]) | also measured
1 | OB(c1ccccc1)c1ccccc1B(O)c1ccccc1 [Example 297, 1,2-di(phenylhydroxyboryl)benzene] | 0.69 | 89 | – | – | x-Fold ([1]; polyglutamine aggregation inhibitory activity, Table 1, listed as 806): 0.69; TGase activity remaining (% of DMSO control = 100) (transglutaminase (TGase); TGase inhibitory activity value, Table 1, listed as 806): 89
2 | OB(CCCCB(O)c1ccccc1)c1ccccc1 [Example 113, 1,4-bis(hydroxyphenylboryl)butane] | 0.99 | 112 | 0.99 | 112 | –
3 | NCCOB(c1ccccc1)c1cccc(-c2cccc(B(OCCN)c3ccccc3)n2)n1 [Example 382, 6,6′-(phenylaminoethoxyboryl)-2,2′-dipyridyl] | 0.80 | 76 | 0.80 | 76 | –
4 | NCCOB(c1ccccc1)c1ccccc1B(OCCN)c1ccccc1 [Example 298, 1,2-di(phenylaminoethoxyboryl)benzene] | 1.01 | 101 | 1.01 | 101 | –
5 | FC(F)(F)c1ccc(C(OB(c2ccccc2)c2ccccc2COCc2ccccc2B(OC(c2ccc(C(F)(F)F)cc2)c2ccccn2)c2ccccc2)c2ccccn2)cc1 (centres unmarked) [Example 134, (2-pyridyl-4-trifluoromethylphenylmethoxyphenylboryl 2-benzyl)ether] | 0.92 | 94 | 0.92 | 94 | –
6 | CNCCOB(c1cc(Cl)ccc1F)c1cc(Cl)ccc1F [Example 101, methylaminoethyl bis(3-chloro-6-fluorophenyl)borinate] | 1.02 | 122 | 1.02 | 122 | –
7 | NCCOB(c1ccc(Cl)cc1F)c1ccc(Cl)cc1F [Example 84, 2-aminoethyl bis(4-chloro-2-fluorophenyl)borinate] | 0.92 | 91 | 0.92 | 91 | –
8 | diphenyl(FITC-2,6-diaminocapronate-O,N)borane [Example 177] | 1.00 | 28 | 1.00 | 28 | –
9 | CCN(CC)CC.CN(C)c1ccc2c(-c3ccc(NC(=S)NCC(N)C(=O)OB(c4ccccc4)c4ccccc4)cc3C(=O)[O-])c3ccc(=[N+](C)C)cc-3oc2c1 (centres unmarked) [Example 175, diphenyl(tetramethylrhodamine 2,3-diaminopropionate-O,N)borane] | 0.89 | 5 | 0.89 | 5 | –
10 | CNCCOB(c1ccc(COc2ccc(B(OCCNC)c3ccc(C(F)(F)F)cc3)cc2)cc1)c1ccc(C(F)(F)F)cc1 [Example 402, (4′-trifluoromethylphenyl-N-methylaminoethoxyboryl)-4-phenyl(4′-trifluoromethylphenyl-N-methylaminoethoxyboryl-4-benzyl)ether] | 0.57 | −12 | – | – | x-Fold [1, 6]: 0.57; TGase activity remaining (% of DMSO control = 100) (transglutaminase (TGase); [7]): −12
11 | CCCCC(N)C(=O)OB(c1ccc(C)c(Cl)c1)c1ccc(C)c(Cl)c1 (centres unmarked) [Example 227, di(3-chloro-4-methylphenyl)(norloysinate-O,N)borane] | 0.99 | 110 | – | – | x-Fold ([1]; polyglutamine aggregation inhibitory activity, Table 1, listed as 4130): 0.99; TGase activity remaining (% of DMSO control = 100) (transglutaminase (TGase); TGase inhibitory activity value, Table 1, listed as 4130): 110
12 | CC(C)(C)B(OCCN)c1ccccc1 [Example 111, aminoethyl tertiary-butyl phenylborinate] | 1.02 | 121 | 1.02 | 121 | –
13 | Cc1cc(B(OCCN)c2cccc(COCc3ccccc3B(OCCN)c3ccc(Cl)c(C)c3)c2)ccc1Cl [Example 351] | 1.00 | 103 | 1.00 | 103 | –
14 | NCCOB(c1ccccc1)c1ccc2ccccc2c1-c1c(B(OCCN)c2ccccc2)ccc2ccccc12 [Example 360, 2,2′-di(phenylaminoethoxyboryl)-1,1′-binaphthyl] | 1.05 | 88 | 1.05 | 88 | –
15 | c1ccc(B(OCc2ccccn2)c2cccc3ccccc23)cc1 [Example 202, phenyl naphthyl 2-pyridylmethylborinate] | 0.94 | 91 | 0.94 | 91 | –
16 | NCCOB(c1ccccc1)c1ccc(COCc2ccc(B(OCCN)c3ccc(COCc4ccc(B(OCCN)c5ccccc5)cc4)cc3)cc2)cc1 [Example 189, bis((4,4′-phenylaminoethoxyboryl)benzyloxybenzyl)aminoethoxyborane] | 0.94 | 119 | 0.94 | 119 | –
17 | CCC(N)COB(c1ccccc1)c1ccccc1 (centres unmarked) [Example 228, diphenyl 2-aminobutylborinate] | 0.98 | 99 | 0.98 | 99 | –
18 | OB(c1ccc(Oc2ccc(B(O)c3cccc4ccccc34)cc2)cc1)c1cccc2ccccc12 [Example 439, bis(4,4′-(naphthylhydroxyboryl)phenyl)ether] | 0.54 | 33 | – | – | x-Fold [1, 6]: 0.54; TGase activity remaining (% of DMSO control = 100) (transglutaminase (TGase); [7]): 33
19 | Cc1ccc(Cl)cc1B(OCC1CCCCN1)c1cc(Cl)ccc1C (centres unmarked) [Example 371] | – | – | 1.17 | 98 | –
20 | CN(C)CCOB(c1ccc(C(F)(F)F)cc1)c1ccc(C(F)(F)F)cc1 [Example 233] | 1.12 | 112 | – | – | x-Fold ([1]; polyglutamine aggregation inhibitory activity, Table 1, listed as 4142): 1.12; TGase activity remaining (% of DMSO control = 100) (transglutaminase (TGase); TGase inhibitory activity value, Table 1, listed as 4142): 112
21 | N#Cc1cccc(B(O)c2cccc(C#N)c2)c1 [Example 306, 3,3′-di(cyano-phenyl)borinic acid] | 0.98 | 90 | 0.98 | 90 | –
22 | CC(C)CC(N)C(=O)OB(c1ccccc1)c1ccccc1 (centres unmarked) [Example 261, diphenyl(leucinate-O,N)borane] | 0.89 | 109 | 0.89 | 109 | –
23 | OB(c1ccc(Cl)c(F)c1)c1ccc(Cl)c(F)c1 [Example 83, bis(3-fluoro-4-chlorophenyl)borinic acid] | 0.92 | 101 | – | – | x-Fold ([1]; polyglutamine aggregation inhibitory activity, Table 1, listed as 6012): 0.92; TGase activity remaining (% of DMSO control = 100) (transglutaminase (TGase); TGase inhibitory activity value, Table 1, listed as 6012): 101
24 | NCCOB(c1ccsc1)c1ccc2sc3ccc(B(OCCN)c4ccsc4)cc3c2c1 [Example 485, 2,8-di(3-thiophenylaminoethoxyboryl)dibenzothiophene] | 0.98 | 76 | – | – | x-Fold [1, 6]: 0.98; TGase activity remaining (% of DMSO control = 100) (transglutaminase (TGase); [7]): 76
25 | NC(CS)C(=O)OB(c1ccccc1)c1ccc(Oc2ccc(B(OC(=O)C(N)CS)c3ccc(CO)cc3)cc2)cc1 (centres unmarked) [Example 397, (4-(phenyl-cysteineboryl)phenyl)(4′-(hydroxymethylphenyl-cysteineboryl)phenyl)ether] | 0.59 | 70 | – | – | x-Fold [1, 6]: 0.59; TGase activity remaining (% of DMSO control = 100) (transglutaminase (TGase); [7]): 70
26 | Cc1c(Cl)cccc1B(O)c1cccc(Cl)c1C [Example 200, di(3-chloro-2-methylphenyl)borinic acid] | 0.92 | 100 | – | – | –
27 | NCCNCCOB(c1ccccc1)c1ccccc1 [Example 154, diphenyl 2-aminoethylaminoethyl borinate] | 0.96 | 105 | 0.96- | 105 | –
28 | NCCOB(c1ccc(Cl)c(F)c1)c1ccc(Cl)c(F)c1 [Example 93, aminoethyl bis(4-chloro-3-fluorophenyl)borinate] | 0.93 | 117 | 0.93 | – | TGase activity remaining (% of DMSO control = 100) (transglutaminase (TGase); TGase inhibitory activity value, Table 1, listed as 6023): 117
29 | Fc1cc(B(OCCNc2ccccc2)c2ccc(Cl)c(F)c2)ccc1Cl [Example 237, di(4-chloro-3-fluorophenyl) 2-phenylaminoethyl borinate] | 1.15 | 88 | 1.15 | 88 | –
30 | Nc1ccccc1SB(c1ccccc1)c1ccccc1 [Example 150, diphenyl-2-aminophenylthioborane] | 0 | 2 | 0 | 2 | –
